Assays:
in vivo = details: for AUC(0-t): AUC0–t; for AUC(0-inf): AUC0–∞; for MRT inf: MRT0–∞
Excerpt: The validated UPLC-MS/MS method was used to measure atractylenolides I, II, and III, and atractyloside A simultaneously in rat plasma after oral administration of raw and wheat bran-processed Atractylodis Rhizoma at a dose of 3.75 g/kg. The integrated pharmacokinetics data were estimated by Drug and Statistics 3.0 (BioGuider Medicinal Technology Co. Ltd, Shanghai, China).
A UPLC system (Acquity, Waters, Milford, MA, USA) coupled with a mass spectrometer detector (XEVO-TQ-S, Waters) was used. The separation was performed on an Acquity UPLC BEH C18 column (Waters; 2.1 × 100 mm, 1.7 µm). The mobile phase consisted of acetonitrile (solution A) and ultrapure water with 0.1% methanoic acid (solution B). […] The mobile phase was delivered at a flow rate of 0.30 mL/min. The column and autosampler temperature were maintained at 40 and 10 °C, respectively. The injection volume was 2 µL and the eluent was detected by mass spectrometry with electrospray ionization (ESI) in positive scan mode. The optimized detector parameters were as follows: positive ESI with a capillary voltage of 3.0 kV; desolvation temperature of 400 °C; desolvation gas flow of 800 L/h, core gas flow of 150 L/h, and nebulizer gas flow of 7 bar. Selected multiple reaction monitoring (MRM), using the precursor to product ion combinations of m/z 233.3→187.2, 231.2→185.2, 249.2→231.2, 471.3→203.2, 151.9→110.16, was used to detect atractylenolides I, II, and III, atractyloside A, and the internal standard (IS), acetaminophen, respectively (Table 8).
Plasma samples were extracted by methanol precipitation. The plasma sample (200 µL) was spiked with IS solution (100 µL, 52 ng/mL), extracted with methanol (800 µL) by vortexing for 2 min, centrifuged at 17,108× g for 10 min, and then evaporated to dryness under a gentle stream of nitrogen. The residue was reconstituted in the mobile phase (100 µL), vortexed for 1 min, and centrifuged at 17,108× g for 10 min. Finally, the supernatant (3 µL) was injected into the UPLC-MS/MS system for analysis.
Ten rats were randomly divided into two groups (five per group). The two groups were orally administered raw Atractylodis Rhizoma at a dose of 3.75 g/kg (equal to 0.48, 0.6, 0.68, and 3.11 mg/kg of atractylenolides I, II, and III, and atractyloside A, respectively), and wheat bran-processed Atractylodis Rhizoma extract solution (equal to 0.46, 0.75, 0.56, and 3.03 mg/kg of atractylenolides I, II, and III, and atractyloside A, respectively). Plasma samples (0.3 mL) were collected in heparinized tubes from the orbital sinus at […], 0.25, 0.5, 1, 1.5,2, 3, 4, 6, 8, 10, and 12 h, and were then immediately centrifuged at 17,108× g for 10 min. The supernatant was transferred to clean test tubes and stored at −20 °C until analysis. Pharmacokinetic parameters, including the area under the blood concentration-time curve (AUC0–∞), elimination half-life (t1/2), apparent volume of distribution (Vd/F), and oral clearance (CL/F) were calculated by a noncompartmental method using Drug and Statistics 3.0 (Chinese Pharmacological Society, Shanghai, China). Other parameters were obtained directly from the experimental observations.
The pharmacokinetic parameters of atractylenolides I, II, and III, and atractyloside A were analyzed by using the one-way ANOVA test with SPSS 17.0 (SPSS Inc., Chicago, IL, USA) and linear regression analysis. The integrated concentrations at each time point for the four compounds were calculated based on the AUC weighting approach using equations (1)–(3). The weighting coefficient (Wj) and the total concentration of each compound (∑AUC0–∞) were calculated by: (1) w1=AUC0–∞/∑AUC0–∞ ∑AUC0–∞ = AUC0–∞ AT-I + AUC0–∞ AT-II + AUC0–∞ AT-III + AUC0–∞ atractyloside A(2)

[1] = tested on: ear edema induced by xylene; set-up: method as in PMID 19023804; details: ear edema induced by xylene in mice; cited from earlier work
HL-60 cells = details: via Cu, Zn-superoxide dismutase inhibition; cited from earlier work
[2] = tested on: rhubarb-induced spleen deficiency; set-up: method as in PMID 24815219; details: rhubarb-induced spleen deficiency in rats; cited from earlier work
[3] = Short-term stability in rat plasma at room temperature; assay type: in vitro ADME; details: for RE: room temperature stability; for 0 h Measured C / 4 h Measured C / 6 h Measured C: room temperature
Description: The stabilities of atractylenolides I, II, and III, and atractyloside A in rat plasma were evaluated at three different QC concentrations using six replicates under two conditions, including at 25 °C for 6 h, and three freeze and thaw cycles. Unextracted QC samples of the four compounds at low, medium, and high concentrations were kept at ambient temperature (25 °C) for 6 h to determine the short-term stability of the compounds in rat plasma. The samples were processed and analyzed, and then the concentrations were compared with the nominal values of the QC samples. The stabilities of the plasma samples after three freeze and thaw cycles were determined. In each cycle, the QC samples were stored at −20 °C for 24 h and thawed unassisted at room temperature. When completely thawed, the samples were refrozen within 24 h. The cycle was repeated three times and the samples were analyzed after the third cycle. Stability was assessed by comparing the mean concentration of the stored QC samples with the mean concentration of freshly prepared QC samples.

[4] = Freeze-thaw stability in rat plasma; assay type: in vitro ADME; details: for One Time Measured C / Two Time Measured C / Zero Time Measured C: freeze-thaw (−20 °C / room temperature); for RE: freeze-thaw stability
Description: […] Unextracted QC samples of the four compounds at low, medium, and high concentrations were kept at ambient temperature (25 °C) for 6 h to determine the short-term stability of the compounds in rat plasma. The samples were processed and analyzed, and then the concentrations were compared with the nominal values of the QC samples. […] In each cycle, the QC samples were stored at −20 °C for 24 h and thawed unassisted at room temperature. When completely thawed, the samples were refrozen within 24 h. […] Stability was assessed by comparing the mean concentration of the stored QC samples with the mean concentration of freshly prepared QC samples.

[5] = set-up: method as in PMID 27019565; details: oral raw vs wheat bran-processed Atractylodis Rhizoma; cited from earlier work
[6] = high QC: added 140 (atractylenolide I), 200 (II, III), 172 (atractyloside A) ng/mL
[7] = low QC: added 5.6 (atractylenolide I), 8 (II, III), 6.88 (atractyloside A) ng/mL
[8] = medium QC: added 28 (atractylenolide I), 40 (II, III), 17.2 (atractyloside A) ng/mL
[9] = rat, in vivo, po, 3.75 g/kg, rat plasma, oral raw Atractylodis Rhizoma 3.75 g/kg, mean ± SD, n = 5
[10] = rat, in vivo, po, 3.75 g/kg, rat plasma, oral wheat bran-processed Atractylodis Rhizoma 3.75 g/kg, mean ± SD, n = 5

Q: For `C=C1CCC[C@]2(C)C[C@]3(O)OC(=O)C(C)=C3C[C@@H]12` [Atractylenolide III], which “AUC0–t” value (in vivo; rat, in vivo, po, 3.75 g/kg) is on record?
A: 284.83 ± 32.94 * h·μg/L

Q: And the Cmax (in vivo; rat, in vivo, po, 3.75 g/kg)?
A: 113.10 ± 19.04 ng/mL

Q: What about the “MRT0–∞” value (in vivo; rat, in vivo, po, 3.75 g/kg) of the same molecule?
A: 3.07 ± 0.31 h

Q: What about the t1/2 (in vivo; rat, in vivo, po, 3.75 g/kg) of the same molecule?
A: 1.81 ± 0.79 h

Q: And the AUC(0-t) (in vivo; rat, in vivo, po, 3.75 g/kg)?
A: 231 ± 76.8 ng·h/mL

Q: What about the AUC(0-inf) (in vivo; rat, in vivo, po, 3.75 g/kg) of the same molecule?
A: 233 ng·h/mL

Q: And the Cmax (in vivo; rat, in vivo, po, 3.75 g/kg, Cmax)?
A: 87 ± 17 ng/mL

Q: What about the MRT inf (in vivo; rat, in vivo, po, 3.75 g/kg) of the same molecule?
A: 3.48 ± 0.29 h

Q: What about the Tmax (in vivo; rat, in vivo, po, 3.75 g/kg) of the same molecule?
A: 1 h

Q: What about the half-life (in vivo; rat, in vivo, po, 3.75 g/kg, t1/2) of the same molecule?
A: 1.56 ± 0.61 h

Q: What about the anti-inflammatory activity [1] of the same molecule?
A: inhibition of ear edema

Q: Which “anticancer activity (apoptosis)” value (HL-60 cells) does the source give for `C=C1CCC[C@]2(C)C=C3OC(=O)C(C)=C3C[C@@H]12` [Atractylenolide I] here?
A: inducing apoptosis

Q: And the anti-inflammatory activity [1]?
A: inhibition of ear edema

Q: And the “treatment of spleen deficiency” value [2]?
A: can be used to treat rhubarb-induced spleen deficiency

Q: Which RE [3, 6] does the source give for `CC(C)(OC1OC(CO)C(O)C(O)C1O)C1CCC(O)(CO)C2CC(=O)C(C)(O)C2C1` (stereo not drawn) [Atractyloside A] here?
A: −0.17%

Q: What about the RE [3, 7] of the same molecule?
A: −6.2%

Q: And the RE [3, 8]?
A: −0.85%

Q: And the “0 h Measured C” value [3, 6]?
A: 172.31 ng/mL

Q: What about the “4 h Measured C” value [3, 6] of the same molecule?
A: 171.50 ng/mL

Q: And the “6 h Measured C” value [3, 6]?
A: 171.32 ng/mL

Q: And the “0 h Measured C” value [3, 7]?
A: 6.81 ng/mL

Q: What about the “4 h Measured C” value [3, 7] of the same molecule?
A: 6.41 ng/mL

Q: And the “6 h Measured C” value [3, 7]?
A: 6.14 ng/mL

Q: What about the “0 h Measured C” value [3, 8] of the same molecule?
A: 17.16 ng/mL

Q: What about the “4 h Measured C” value [3, 8] of the same molecule?
A: 17.02 ng/mL

Q: And the “6 h Measured C” value [3, 8]?
A: 16.98 ng/mL

Q: And the “Cmax ratio, wheat bran-processed group vs raw group” value (in vivo; rat plasma, oral 3.75 g/kg)?
A: 1.20 fold

Q: What about the AUC(0-t) (in vivo; [9]) of the same molecule?
A: 138 ± 60.1 ng·h/mL

Q: What about the AUC(0-t) (in vivo; [10]) of the same molecule?
A: 307 ± 73.8 ng·h/mL

Q: What about the AUC(0-inf) (in vivo; rat, in vivo, po, 3.75 g/kg, Table 6, rat plasma, oral raw Atractylodis Rhizoma 3.75 g/kg) of the same molecule?
A: 167 ng·h/mL

Q: And the AUC(0-inf) (in vivo; rat, in vivo, po, 3.75 g/kg, Table 6, rat plasma, oral wheat bran-processed Atractylodis Rhizoma 3.75 g/kg)?
A: 325 ng·h/mL

Q: What about the AUC(0-inf) (in vivo; [9]) of the same molecule?
A: 167 ± 90.1 ng·h/mL

Q: And the AUC(0-inf) (in vivo; [10])?
A: 325 ± 72.1 ng·h/mL

Q: What about the Cmax (in vivo; rat, in vivo, po, 3.75 g/kg, Cmax, rat plasma, oral raw Atractylodis Rhizoma 3.75 g/kg, mean ± SD, n = 5) of the same molecule?
A: 57.8 ± 21.6 ng/mL

Q: And the Cmax (in vivo; rat, in vivo, po, 3.75 g/kg, Cmax, rat plasma, oral wheat bran-processed Atractylodis Rhizoma 3.75 g/kg, mean ± SD, n = 5)?
A: 69.4 ± 8.29 ng/mL

Q: What about the MRT inf (in vivo; [9]) of the same molecule?
A: 6.05 ± 2.58 h

Q: What about the MRT inf (in vivo; [10]) of the same molecule?
A: 4.87 ± 0.84 h

Q: What about the Tmax (in vivo; [9]) of the same molecule?
A: 0.95 ± 0.11 h

Q: What about the Tmax (in vivo; [10]) of the same molecule?
A: 1.5 h

Q: And the half-life (in vivo; rat, in vivo, po, 3.75 g/kg, t1/2, rat plasma, oral raw Atractylodis Rhizoma 3.75 g/kg, mean ± SD, n = 5)?
A: 3.95 ± 2.22 h

Q: And the half-life (in vivo; rat, in vivo, po, 3.75 g/kg, t1/2, rat plasma, oral wheat bran-processed Atractylodis Rhizoma 3.75 g/kg, mean ± SD, n = 5)?
A: 2.55 ± 0.98 h

Q: And the “One Time Measured C” value [4, 6]?
A: 171.48 ng/mL

Q: What about the “Two Time Measured C” value [4, 6] of the same molecule?
A: 171.65 ng/mL

Q: What about the “Zero Time Measured C” value [4, 6] of the same molecule?
A: 172.73 ng/mL

Q: And the “One Time Measured C” value [4, 7]?
A: 6.38 ng/mL

Q: What about the “Two Time Measured C” value [4, 7] of the same molecule?
A: 6.02 ng/mL

Q: What about the “Zero Time Measured C” value [4, 7] of the same molecule?
A: 6.39 ng/mL

Q: And the “One Time Measured C” value [4, 8]?
A: 17.36 ng/mL

Q: What about the “Two Time Measured C” value [4, 8] of the same molecule?
A: 17.02 ng/mL

Q: What about the “Zero Time Measured C” value [4, 8] of the same molecule?
A: 17.86 ng/mL

Q: What about the RE [4, 6] of the same molecule?
A: −0.03%

Q: What about the RE [4, 7] of the same molecule?
A: −8.96%

Q: What about the RE [4, 8] of the same molecule?
A: 1.24%

Q: With `C/C=C/C#CC#C/C=C/c1ccco1` [atractylodin] as the molecule, how does the “effect of stir-frying the rhizome with wheat bran on absorption” value [5] read?
A: promoted and accelerated the absorption
